In assay [1] the test system is Trypanosoma brucei Lister 427 strain bloodstream form. Put plainly: Assay for proliferation of kinetoplastid parasite Trypanosoma brucei. Conditions: Lister 427 bloodstream form, 48 hours, read-out: T. brucei EC50. Type of assay: cell-based. The procedure, abridged:
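Bloodstream-form T. brucei Lister 427 in HMI-9 medium was exposed to compound (DMSO vehicle) for 48 hours at 37° C, 5% CO2. Parasite growth was read as ATP by CellTiter-Glo luminescence, with EC50 calculated from percent inhibition.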

Assay [2] has as its system Leishmania donovani axenic amastigote parasites. Description: Leishmania donovani axenic amastigote proliferation assay. Type of assay: cell-based. Particulars: axenic amastigotes in vitro, read-out: L. donovani amastigotes EC50. The procedure, abridged:
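EC50 values come from CellTiter-Glo luminescence after 2-day compound exposure of axenic amastigotes (9600 per well) at 37 °C, 5% CO2. Medium: RPMI 1640, 20% heat-inactivated FBS, folic acid, adenosine, D-glucose, 25 mM MES, adjusted to pH 5.5.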

The test system of assay [3] is L. donovani HU3 strain in mouse peritoneal macrophages. Description: Assay for proliferation of Leishmania parasites in mouse peritoneal macrophages. In kind it is cell-based, Leishmania donovani. Particulars: Leishmania donovani, Peritoneal macrophage, read-out: L. donavani Macrophage EC50. The procedure, abridged: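 EC50 derives from counting SYBR Green-stained parasite nuclei by high-content imaging after 5 days' compound exposure. Host cells were uninfected BALB/c peritoneal macrophages, infected for 24 h before dosing with spleen-derived L. donovani HU3 parasites from mice infected 9–11 weeks.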

SMILES strings stand for the structures.

Consider `Cc1cnc2nc(-c3cc(NC(=O)Cc4nnn[nH]4)ccc3Cl)[nH]c2c1` [Compound 169], for which the EC50 is > 25 µM in assay [1], > 25 µM in assay [2] and > 50 µM in assay [3].

In the case of `Cc1cnc2nc(-c3cc(Nc4cccnc4N4CCOCC4)ccc3Cl)[nH]c2c1` [Compound 264], the EC50 was 11.7 µM in assay [1], > 25 µM in assay [2] and > 32.3 µM in assay [3].

Consider `Cc1cnc2nc(-c3cc(Nc4nccc5c4CCN(Cc4ccccc4)C5)ccc3Cl)[nH]c2c1` [Compound 265], for which the results for the EC50 in assay [1], in assay [2] and in assay [3] were 8.2 µM, > 25 µM and 15.6 µM, respectively.

On to `Cc1cnc2nc(-c3cc(NC(=O)CN)ccc3Cl)[nH]c2c1` [Compound 116], for which the EC50 in assay [1] is > 25 µM; in assay [2], > 25 µM; in assay [3], > 50 µM.

`O=C(Nc1ccc(Cl)c(-c2nc3ncc(C(F)(F)F)cc3[nH]2)c1)C1CCCC1` [Compound 282]: the EC50 in assay [1] amounted to 11.2 µM; in assay [2] it was 17.5 µM; in assay [3], 3.3 µM.

Turning to `COc1cc(-c2cnc3nc(-c4cc(NC(=O)c5ccco5)ccc4Cl)[nH]c3c2)ccc1NC(=O)OC(C)(C)C` [Compound 34], the EC50 is 0.105 µM in assay [1], 0.6 µM in assay [2] and 1.79 µM in assay [3].

For `COc1ccccc1C(=O)Nc1ccc(Cl)c(-c2nc3ncc(C)cc3[nH]2)c1` [Compound 108], the EC50 in assay [1] was 8.3 µM; in assay [2], > 25 µM; in assay [3], 16.3 µM.

As for `Cc1cnc2nc(-c3cc(NC(=O)N4CCCCC4)ccc3Cl)[nH]c2c1` [Compound 239], the EC50 was 2.06 µM in assay [1], 13.9 µM in assay [2] and > 35.6 µM in assay [3].

For `Cc1cnc2nc(-c3cc(NC(=O)c4nnc(C)o4)ccc3Cl)[nH]c2c1` [Compound 106], the concentration giving a half-maximal response (EC50) is 13.3 µM in assay [1], > 25 µM in assay [2] and > 50 µM in assay [3].

Turning to `Cc1cnc2nc(-c3cc(NS(=O)(=O)N4CCCCC4)ccc3Cl)[nH]c2c1` [Compound 254], the half-maximal effective concentration (EC50) in assay [1] was > 25 µM; in assay [2] it was > 25 µM; in assay [3], > 50 µM.

In the case of `Cc1cnc2nc(-c3cc(NC(=O)CNC(=O)OC(C)(C)C)ccc3Cl)[nH]c2c1` [Compound 112], the half-maximal effective concentration (EC50) in assay [1] is > 24.1 µM; in assay [2], > 25 µM; in assay [3] it was > 50 µM.

Take `Cc1cnc2nc(-c3cc(NC(=O)c4nc(C)n[nH]4)ccc3Cl)[nH]c2c1` [Compound 203]: the half-maximal effective concentration (EC50) in assay [1] was > 25 µM; in assay [2] it was > 25 µM; in assay [3], > 50 µM.

For `Cc1cnc2nc(-c3cc(NC(=O)N4CCCC4)ccc3Cl)[nH]c2c1` [Compound 245], the half-maximal effective concentration (EC50) in assay [1] is 0.241 µM; in assay [2], 1.77 µM; in assay [3], 18.8 µM.

For `Cc1cnc2nc(-c3cc(NC(=O)Cn4cccnc4=O)ccc3Cl)[nH]c2c1` [Compound 168], the EC50 is > 16.7 µM in assay [1], > 25 µM in assay [2] and > 50 µM in assay [3].

In the case of `Cc1cnc2nc(-c3cc(NC(=O)C4(C)CN(C(=O)OC(C)(C)C)C4)ccc3Cl)[nH]c2c1` [Compound 133], the EC50 in assay [1] is > 25 µM; in assay [2], > 25 µM; in assay [3] it was > 50 µM.

For `Cc1cnc2nc(-c3cc(NC(=O)C(C)c4ccc(F)cc4)ccc3Cl)[nH]c2c1` (stereo not drawn) [Compound 119], the values for the EC50 in assay [1], in assay [2] and in assay [3] were > 16.2 µM, > 25 µM and 24.2 µM, respectively.

Regarding `CO[C@@H](C(=O)Nc1ccc(Cl)c(-c2nc3ncc(C)cc3[nH]2)c1)c1ccccc1` [Compound 181], the concentration giving a half-maximal response (EC50) in assay [1] was > 14.5 µM; in assay [2], > 25 µM; in assay [3] it was > 30.5 µM.

On to `Cc1cnc2nc(-c3cc(NC(=O)C4Cc5ccccc5O4)ccc3Cl)[nH]c2c1` (stereo not drawn) [Compound 123], for which the half-maximal effective concentration (EC50) in assay [1] was 4.1 µM; in assay [2], 20.3 µM; in assay [3] it was > 50 µM.

Regarding `Cc1cnc2nc(-c3cc(NC(=O)c4cc(C5CC5)n[nH]4)ccc3Cl)[nH]c2c1` [Compound 158], the EC50 in assay [1] was 13 µM; in assay [2], > 25 µM; in assay [3], > 50 µM.

Turning to `COc1ccc(C(C)C(=O)Nc2ccc(Cl)c(-c3nc4ncc(C)cc4[nH]3)c2)cc1` (stereo not drawn) [Compound 165], the half-maximal effective concentration (EC50) in assay [1] was > 11.7 µM; in assay [2], > 24.5 µM; in assay [3] it was 23.1 µM.

As to `Cc1cnc2nc(-c3cc(NC(=O)C(C)(C)c4ccc(Cl)cc4)ccc3Cl)[nH]c2c1` [Compound 81], the EC50 in assay [1] was 10.8 µM; in assay [2] it was > 25 µM; in assay [3], 16.9 µM.

With `Cc1ccc(CC(=O)Nc2ccc(Cl)c(-c3nc4ncc(C)cc4[nH]3)c2)cc1` [Compound 167], the concentration giving a half-maximal response (EC50) in assay [1] is > 11.5 µM; in assay [2] it was > 25 µM; in assay [3], 16.1 µM.

As for `CCOC(=O)Nc1ccc(Cl)c(-c2nc3ncc(-c4ccc5c(c4)CC(=O)N5)cc3[nH]2)c1` [Compound 378], the values for the EC50 in assay [1], in assay [2] and in assay [3] were 0.02 µM, 0.69 µM and 3.3 µM, respectively.

With `Cc1cnc2nc(-c3cc(NC(=O)c4ccc(N5CCOCC5)cc4)ccc3Cl)[nH]c2c1` [Compound 109], the values for the EC50 in assay [1], in assay [2] and in assay [3] were 15.1 µM, > 24.4 µM and > 19.1 µM, respectively.

With `Cc1cnc2nc(-c3cc(NC(=O)C4(C)COC4)ccc3Cl)[nH]c2c1` [Compound 163], the EC50 in assay [1] is > 25 µM; in assay [2], > 25 µM; in assay [3], > 50 µM.

For `Cc1cnc2nc(-c3cc(NC(=O)c4cc[nH]n4)ccc3Cl)[nH]c2c1` [Compound 157], the EC50 in assay [1] was 12.8 µM; in assay [2] it was > 25 µM; in assay [3], > 34.6 µM.

In the case of `Cc1cnc2nc(-c3cc(NC(=O)N4CCOCC4)ccc3Cl)[nH]c2c1` [Example 237, N-(4-chloro-3-{6-methyl-1H-imidazo[4,5-b]pyridin-2-yl}phenyl)morpholine-4-carboxamide], the concentration for a half-maximal effect (EC50) in assay [1] is 8.7 µM; in assay [2], > 25 µM; in assay [3] it was > 50 µM.

As to `Cc1cnc2nc(-c3cc(NC(=O)c4ccno4)ccc3Cl)[nH]c2c1` [Compound 155], the EC50 in assay [1] is 4.3 µM; in assay [2], 7.2 µM; in assay [3], > 39.7 µM.

Turning to `Cc1cnc2nc(-c3cc(NC(=O)c4nccs4)ccc3Cl)[nH]c2c1` [Compound 192], the 50% effective concentration (EC50) is 0.49 µM in assay [1], 10.2 µM in assay [2] and > 37.9 µM in assay [3].

Take `COc1ccc(-c2cnc3nc(-c4cc(NC(=O)c5ccco5)ccc4Cl)[nH]c3c2)cc1S(=O)(=O)N1CCCC1` [Compound 49]: the results for the concentration for a half-maximal effect (EC50) in assay [1], in assay [2] and in assay [3] were 0.0067 µM, 0.44 µM and 1.05 µM, respectively.

With `Cc1cnc2nc(-c3cc(NC(=O)c4cnccn4)ccc3Cl)[nH]c2c1` [Compound 206], the figures for the concentration giving a half-maximal response (EC50) in assay [1], in assay [2] and in assay [3] were 0.174 µM, 1.56 µM and 13.4 µM, respectively.

For `Cc1cnc2nc(-c3cc(NC(=O)c4cccnc4)ccc3Cl)[nH]c2c1` [Compound 208], the half-maximal effective concentration (EC50) was 2.48 µM in assay [1], 8.7 µM in assay [2] and > 32.7 µM in assay [3].

As to `Cc1cnc2nc(-c3cc(NC(=O)OCC(F)(F)F)ccc3Cl)[nH]c2c1` [Compound 225], the concentration for a half-maximal effect (EC50) in assay [1] is > 25 µM; in assay [2] it was > 25 µM; in assay [3], > 50 µM.

`Cc1cnc2nc(-c3cc(NS(=O)(=O)Cc4ccccc4)ccc3Cl)[nH]c2c1` [Example 250, N-(4-chloro-3-{6-methyl-1H-imidazo[4,5-b]pyridin-2-yl}phenyl)-1-phenylmethanesulfonamide]: the figures for the EC50 in assay [1], in assay [2] and in assay [3] were > 25 µM, > 25 µM and > 50 µM, respectively.

`Cc1cnc2nc(-c3cc(NC(=O)C(c4ccc(Cl)cc4)C(C)C)ccc3Cl)[nH]c2c1` (stereo not drawn) [Compound 141]: the EC50 was 6.2 µM in assay [1], 13.9 µM in assay [2] and 9.7 µM in assay [3].

In general, EC50 refers to the concentration at which the effect is half-maximal.
